Reference: patent publication US12103969B2, “Anti-Siglec antibody, pharmaceutical composition comprising the same, and uses thereof” (Academia Sinica, priority 2018, dated 2024)
Like-named read-outs stand apart in the source and are kept apart here.

Columns and labels:
[1] = target: T1, hHBV and Siglec-3 interaction (Homo sapiens, UniProt P20138); assay: Competition assay of hHBV and Siglec-3 interaction by sialoglycan; assay type: binding
T1 construct: human Siglec-3/-7 extracellular domain (ECD); made in house; host or cells: FreeStyle 293 Expression System (Invitrogen); HBsAg/HBV purified from CHB patients' blood
Method: (§1) Sialidase S and sialidase C were used to remove sialoglycan from HBV or sialoglycans, respectively. Sialidase S releases only α(2-3)-linked Neu5Ac, while Sialidase C release both α(2-3) and α(2-6)-linked Neu5Ac. The sialidase-treated substrates were used for HBV-Siglec-3 binding assay and competition assay.
Siglec ECD.Fc fusion proteins (5 μg) were coated on microtitre plates, followed by addition of HBsAg (100 ng) in the presence various concentrations of following glycans: Neu5Ac(α2-6)-Gal-GlcNAc, Neu5Ac(α2-3)-Gal-GlcNAc, and Gal-GlcNAc at 4° C. for 12 hours with Protein free blocking buffer. The sialidase-treated and un-treated sialyglycans were used for competition assay.

Siglec-3.Fc = target: T2, Siglec-3.Fc (Homo sapiens, UniProt P20138); assay: Bio-layer interferometry: Siglec-3.Fc and Neu5Ac(α2-6)GalGlcNAc glycans; assay type: binding
T2 construct: human Siglec-3/-7 extracellular domain (ECD); made in house; host or cells: FreeStyle 293 Expression System (Invitrogen)
Method: (§2) The interaction between human Siglec.Fc fusion protein and HBV was determined by the Bio-layer interferometry. In brief, the biosensor was immobilized with the Siglec.Fc fusion protein, and the binding between the Siglec.Fc and HBV was performed with running buffer (10 mM Tris HCl, 150 mM NaCl, 2 mM CaCl2, 2 mM MgCl2, pH 7.4) at room temperature. The valence between HBV and human Siglec-3 was determined, which correlates the strength of multivalent association with that of monovalent association as shown in the following: • KA, surf=F (S×10^−2)^n−1×(KA, mono)^n, where KA, surf is thereciprocal of KD (HBV and Siglec-3), KA, mono is the reciprocal of KD (Biantennary a2-6 linked sialylglycopeptide and Siglec-3); n is the number of valency number; F is the statistic factor in the system and S is equal to 40(Å), which is estimated according to crystal structure of Siglec-3 published on RCSB protein data bank (Number: 5J0B). Three individual BLI results were used to calculate out the n (number of valency). Generation and Characterization of Anti-Siglec mAbs and Selection of Antagonistic Antibody

hHBV [2] = assay: Bio-layer interferometry: immobilized Fc-lectin and hHBV; assay type: binding, hepatitis B virus
Text: (§3) HBV was purified from blood samples of chronic hepatitis B (CHB) patients and HBV-transgenic mice, respectively. The protocol for HBV was purified by conventional method. HBV viral load was determinate by RT-PCR according to a standard HBV plasmid. HBsAg level was quantified by the HBsAg ELISA kit.
as §1, §2

hHBV [3] = assay: Immunoprecipitation of hHBV by Siglec ECD.Fc fusion proteins; assay type: binding, hepatitis B virus; conditions: Western blot with anti-HBs
Method: HBV ([…]) was incubated with recombinant Siglec-3/-7/-9 ECD.Fc fusion proteins, respectively, for 16 hours at 4° C., followed by incubation with Sepharose-conjugated Protein A beads for immunoprecipitation. The samples were fractionated on 12% SDS-PAGE before blotting to PVDF membrane and incubated in blocking buffer (0.05% Tween 20 in TBS containing 5% BSA) at 4° C. overnight. Blots were incubated with […] polyclonal goat-anti-HBs Ab for 1 hour at room temperature, followed by incubation with Streptavidin-HRP (1:10000 dilution) for another 1 hour at room temperature, and were visualized by ECL.

mHBV = assay: Bio-layer interferometry: immobilized Fc-lectin and mHBV; assay type: binding, hepatitis B virus; conditions: BLI, same condition as hHBV
Method: as §3, §2

[4] = untreated glycan, various concentrations

T2 sequence (P20138 18-259 limits assumed): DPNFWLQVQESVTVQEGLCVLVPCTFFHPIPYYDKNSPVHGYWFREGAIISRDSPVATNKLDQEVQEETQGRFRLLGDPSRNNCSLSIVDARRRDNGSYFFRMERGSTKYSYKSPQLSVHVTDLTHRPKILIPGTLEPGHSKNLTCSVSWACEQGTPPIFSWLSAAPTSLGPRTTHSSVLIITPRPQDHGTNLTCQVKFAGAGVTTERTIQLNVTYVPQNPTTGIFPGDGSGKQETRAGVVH
T1 sequence (P20138 18-259 limits assumed): as above

Question: GalGlcNAc was tested. Which “inhibition of Siglec-3-HBV interaction” value [1, 4] did it give?
Answer: did not inhibit Siglec-3-HBV interaction

Question: With Neu5Ac(α2-3)GalGlcNAc as the substance, how does the “inhibition of Siglec-3-HBV interaction” value [1, 4] read?
Answer: did not inhibit Siglec-3-HBV interaction

Question: What does the source list for Neu5Ac(α2-6)GalGlcNAc?
Answer: Ka (Siglec-3.Fc; immobilized Siglec-3, cell wraps: value is the mantissa, factor × 10^0 printed in the lines below): 5.44 M⁻¹ s⁻¹; Kd (Siglec-3.Fc; immobilized Siglec-3, cell wraps: value is the mantissa, factor × 10^−3 printed in the lines below): 6.02 s⁻¹; Kd (Siglec-3.Fc; recombinant Siglec-3.Fc (dimeric), full value, unit from Table 1, read-out: equilibrium dissociation constant (KD)): 1590 µM; inhibition of Siglec-3-HBV interaction ([1]; Sialidase C-treated glycan): lost its inhibitory effect; inhibition of Siglec-3-HBV interaction [1, 4]: inhibited Siglec-3-HBV interaction in a dose-dependent manner

Question: With “Siglec-3: recombinant human Siglec-3 extracellular domain (ECD).Fc fusion protein” as the substance, how does the “Ka” value (hHBV [2]; hHBV Sialidase S treated, cell wraps: value is the mantissa, factor × 10^5 printed in the lines below) read?
Answer: 7.11 M⁻¹ s⁻¹

Question: And the “Kd” value (hHBV [2]; hHBV Sialidase S treated, cell wraps: value is the mantissa, factor × 10^−4 printed in the lines below)?
Answer: 2.73 s⁻¹

Question: What about the “Ka” value (hHBV [2]; hHBV Untreat, cell wraps: value is the mantissa, factor × 10^6 printed in the lines below) of the same substance?
Answer: 1.18 M⁻¹ s⁻¹

Question: And the “Kd” value (hHBV [2]; hHBV Untreat, cell wraps: value is the mantissa, factor × 10^−4 printed in the lines below)?
Answer: 6.97 s⁻¹

Question: And the Kd (hHBV [2]; hHBV virions, full value, unit from Table 2, read-out: KD)?
Answer: 0.000115 µM

Question: And the “Ka” value (hHBV [2]; hHBV, cell wraps: value is the mantissa, factor × 10^6 printed in the line below)?
Answer: 3.11 M⁻¹ s⁻¹

Question: What about the “Kd” value (hHBV [2]; hHBV, cell wraps: value is the mantissa, factor × 10^−4 printed in the line below) of the same substance?
Answer: 3.58 s⁻¹

Question: What about the “binding between Siglec-3 and hHBV” value (hHBV [2]; α2-6 linked Neu5Ac removed from hHBV by sialidase C) of the same substance?
Answer: abolished the binding

Question: What about the “pull down of hHBV HBsAg (immunoprecipitation)” value (hHBV [3]) of the same substance?
Answer: mainly pulled down glycosylated small HBsAg(h)

Question: What about the “binding to mHBV virions” value (mHBV) of the same substance?
Answer: did not bind

Question: Which “binding to hHBV” value (hHBV [2]; hHBV, BLI, same condition as Siglec-3) does the source give for “Siglec-9: recombinant Siglec-9 ECD.Fc fusion protein” here?
Answer: did not bind

Question: What about the “pull down of hHBV HBsAg (immunoprecipitation)” value (hHBV [3]) of the same substance?
Answer: cannot pull down
